According to US8703961B2, “Thiazole derivatives for the treatment of diseases such as cancer” (Merck Patent GmbH, priority 2009, dated 2014):

Legend:
Experiment in all cases: filter binding kinase assay
Type in all cases: biochemical
KDR (VEGFR) = target: T1, KDR (VEGFR) (Homo sapiens, UniProt P35968); conditions: for IC50: derived from % inhibition at 1 μM
T1 construct: purchased
Procedure: (§1) All kinase assays were carried out using the Multidrop 384 from Thermo-Fisher at room temperature in a total assay volume of 25.5 μl. 15 μl of an enzyme mix comprising enzyme and substrate in buffer are added to the test batch comprising either 0.5 μl of test substance, DMSO control or empty container. Test substances are pre-incubated in the presence of the enzyme and substrate for 5 minutes before the reaction is initiated by addition of 10 μl of ATP (concentration kinase-dependent of […]). The reaction is terminated by addition of 5 μl of orthophosphoric acid (50 mM). The test containers are then transferred onto P81 Unifilter plates by means of a “Packard Harvester” and dried in air. The dry Unifilter plates are sealed after the addition of MicroScint O, and the radioactivity is determined in a Packard Topcount NXT.

PDPK1 (PDK1) = target: T2, PDPK1 (PDK1) (Homo sapiens, UniProt O15530); conditions: for IC50: derived from % inhibition at 1 μM, first PDPK1 line
T2 construct: purchased
T2 sequence (O15530 1-556): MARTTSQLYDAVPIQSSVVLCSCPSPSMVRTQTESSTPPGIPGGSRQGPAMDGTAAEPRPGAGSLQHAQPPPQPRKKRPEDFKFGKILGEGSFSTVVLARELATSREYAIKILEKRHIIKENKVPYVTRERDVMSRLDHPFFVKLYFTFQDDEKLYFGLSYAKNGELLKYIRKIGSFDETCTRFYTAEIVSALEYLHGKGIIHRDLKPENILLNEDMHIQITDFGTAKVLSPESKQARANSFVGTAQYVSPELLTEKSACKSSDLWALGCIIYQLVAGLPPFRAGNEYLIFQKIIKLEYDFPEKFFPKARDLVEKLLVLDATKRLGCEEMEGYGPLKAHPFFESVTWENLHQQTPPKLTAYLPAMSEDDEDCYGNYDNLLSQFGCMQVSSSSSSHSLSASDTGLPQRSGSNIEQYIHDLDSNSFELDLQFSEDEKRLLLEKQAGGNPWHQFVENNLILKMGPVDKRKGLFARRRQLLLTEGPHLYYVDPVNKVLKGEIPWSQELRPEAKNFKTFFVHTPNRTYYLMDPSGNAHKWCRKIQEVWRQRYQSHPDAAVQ
Procedure: as §1

TTK = target: T3, TTK (Homo sapiens, UniProt P33981); conditions: derived from % inhibition at 1 μM
T3 construct: purchased
T3 sequence (P33981 1-857): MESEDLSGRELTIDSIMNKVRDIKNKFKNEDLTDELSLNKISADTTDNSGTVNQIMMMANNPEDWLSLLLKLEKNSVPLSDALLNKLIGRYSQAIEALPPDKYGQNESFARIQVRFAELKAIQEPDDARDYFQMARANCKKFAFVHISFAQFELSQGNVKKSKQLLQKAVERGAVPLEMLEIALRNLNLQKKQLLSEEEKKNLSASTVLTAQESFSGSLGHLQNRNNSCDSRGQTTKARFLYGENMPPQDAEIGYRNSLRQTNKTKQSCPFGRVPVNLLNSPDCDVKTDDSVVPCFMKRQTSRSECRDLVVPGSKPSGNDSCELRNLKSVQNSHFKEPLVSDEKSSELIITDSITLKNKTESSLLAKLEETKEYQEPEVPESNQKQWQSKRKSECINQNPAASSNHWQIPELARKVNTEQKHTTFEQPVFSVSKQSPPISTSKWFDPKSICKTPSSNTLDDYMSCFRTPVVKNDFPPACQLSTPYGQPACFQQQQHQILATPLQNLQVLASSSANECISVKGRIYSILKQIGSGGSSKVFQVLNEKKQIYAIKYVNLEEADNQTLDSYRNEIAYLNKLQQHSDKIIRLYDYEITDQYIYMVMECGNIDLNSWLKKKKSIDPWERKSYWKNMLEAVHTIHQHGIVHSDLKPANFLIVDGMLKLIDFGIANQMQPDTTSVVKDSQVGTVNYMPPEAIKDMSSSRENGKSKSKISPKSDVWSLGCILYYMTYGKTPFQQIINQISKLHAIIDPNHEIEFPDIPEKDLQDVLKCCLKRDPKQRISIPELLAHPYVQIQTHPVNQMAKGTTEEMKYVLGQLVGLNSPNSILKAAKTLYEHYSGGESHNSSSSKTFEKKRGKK
Procedure: as §1

MARK3 = target: T4, MARK3 (Homo sapiens, UniProt P27448); conditions: for IC50: derived from % inhibition at 1 μM
T4 construct: purchased
T4 sequence (P27448 whole entry, species assumed): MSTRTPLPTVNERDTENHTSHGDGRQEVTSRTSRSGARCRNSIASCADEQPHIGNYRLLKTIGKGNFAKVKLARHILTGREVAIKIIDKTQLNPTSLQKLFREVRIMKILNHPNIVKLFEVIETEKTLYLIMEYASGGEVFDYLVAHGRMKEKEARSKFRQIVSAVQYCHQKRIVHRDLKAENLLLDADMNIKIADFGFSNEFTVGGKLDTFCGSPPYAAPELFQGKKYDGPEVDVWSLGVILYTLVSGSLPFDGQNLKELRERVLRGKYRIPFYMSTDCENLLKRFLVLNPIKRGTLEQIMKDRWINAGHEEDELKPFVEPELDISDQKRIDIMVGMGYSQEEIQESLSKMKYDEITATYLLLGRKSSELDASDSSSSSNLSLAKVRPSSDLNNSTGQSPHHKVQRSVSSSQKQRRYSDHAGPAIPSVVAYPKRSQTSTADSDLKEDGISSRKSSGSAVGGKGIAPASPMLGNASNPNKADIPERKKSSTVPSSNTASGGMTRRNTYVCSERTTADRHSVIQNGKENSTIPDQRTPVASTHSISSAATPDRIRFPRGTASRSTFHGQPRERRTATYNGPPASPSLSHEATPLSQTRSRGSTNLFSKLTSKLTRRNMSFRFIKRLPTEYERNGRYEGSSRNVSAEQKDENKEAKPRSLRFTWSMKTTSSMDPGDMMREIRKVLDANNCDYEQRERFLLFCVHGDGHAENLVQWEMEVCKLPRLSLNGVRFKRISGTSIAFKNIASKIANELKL
Procedure: as §1

CSNK2A1 (CK2) = target: T5, CSNK2A1 (CK2) (Homo sapiens, UniProt P68400); conditions: for IC50: derived from % inhibition at 1 μM
T5 construct: purchased
T5 sequence (P68400 whole entry, species assumed): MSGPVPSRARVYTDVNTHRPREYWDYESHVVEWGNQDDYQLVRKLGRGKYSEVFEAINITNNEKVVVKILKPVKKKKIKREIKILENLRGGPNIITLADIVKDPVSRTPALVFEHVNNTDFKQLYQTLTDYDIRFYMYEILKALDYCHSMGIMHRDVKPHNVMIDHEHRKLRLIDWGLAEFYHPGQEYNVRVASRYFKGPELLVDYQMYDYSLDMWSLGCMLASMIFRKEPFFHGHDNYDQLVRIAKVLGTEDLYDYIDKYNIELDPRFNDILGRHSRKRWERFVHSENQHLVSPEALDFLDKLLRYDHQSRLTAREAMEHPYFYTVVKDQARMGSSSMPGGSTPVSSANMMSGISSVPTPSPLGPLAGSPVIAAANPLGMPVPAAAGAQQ
Procedure: as §1

CDK2 = target: T6, CDK2 (Homo sapiens, UniProt P24941); conditions: for IC50: derived from % inhibition at 1 μM; for remaining activity at 1 µM: read-out: residual kinase activity CDK2
T6 construct: purchased
Procedure: as §1

HIPK1 = target: T7, HIPK1 (Homo sapiens, UniProt Q86Z02); conditions: for IC50: derived from % inhibition at 1 μM; for remaining activity at 1 µM: read-out: residual kinase activity HIPK1
T7 construct: purchased
T7 sequence (Q86Z02 whole entry, species assumed): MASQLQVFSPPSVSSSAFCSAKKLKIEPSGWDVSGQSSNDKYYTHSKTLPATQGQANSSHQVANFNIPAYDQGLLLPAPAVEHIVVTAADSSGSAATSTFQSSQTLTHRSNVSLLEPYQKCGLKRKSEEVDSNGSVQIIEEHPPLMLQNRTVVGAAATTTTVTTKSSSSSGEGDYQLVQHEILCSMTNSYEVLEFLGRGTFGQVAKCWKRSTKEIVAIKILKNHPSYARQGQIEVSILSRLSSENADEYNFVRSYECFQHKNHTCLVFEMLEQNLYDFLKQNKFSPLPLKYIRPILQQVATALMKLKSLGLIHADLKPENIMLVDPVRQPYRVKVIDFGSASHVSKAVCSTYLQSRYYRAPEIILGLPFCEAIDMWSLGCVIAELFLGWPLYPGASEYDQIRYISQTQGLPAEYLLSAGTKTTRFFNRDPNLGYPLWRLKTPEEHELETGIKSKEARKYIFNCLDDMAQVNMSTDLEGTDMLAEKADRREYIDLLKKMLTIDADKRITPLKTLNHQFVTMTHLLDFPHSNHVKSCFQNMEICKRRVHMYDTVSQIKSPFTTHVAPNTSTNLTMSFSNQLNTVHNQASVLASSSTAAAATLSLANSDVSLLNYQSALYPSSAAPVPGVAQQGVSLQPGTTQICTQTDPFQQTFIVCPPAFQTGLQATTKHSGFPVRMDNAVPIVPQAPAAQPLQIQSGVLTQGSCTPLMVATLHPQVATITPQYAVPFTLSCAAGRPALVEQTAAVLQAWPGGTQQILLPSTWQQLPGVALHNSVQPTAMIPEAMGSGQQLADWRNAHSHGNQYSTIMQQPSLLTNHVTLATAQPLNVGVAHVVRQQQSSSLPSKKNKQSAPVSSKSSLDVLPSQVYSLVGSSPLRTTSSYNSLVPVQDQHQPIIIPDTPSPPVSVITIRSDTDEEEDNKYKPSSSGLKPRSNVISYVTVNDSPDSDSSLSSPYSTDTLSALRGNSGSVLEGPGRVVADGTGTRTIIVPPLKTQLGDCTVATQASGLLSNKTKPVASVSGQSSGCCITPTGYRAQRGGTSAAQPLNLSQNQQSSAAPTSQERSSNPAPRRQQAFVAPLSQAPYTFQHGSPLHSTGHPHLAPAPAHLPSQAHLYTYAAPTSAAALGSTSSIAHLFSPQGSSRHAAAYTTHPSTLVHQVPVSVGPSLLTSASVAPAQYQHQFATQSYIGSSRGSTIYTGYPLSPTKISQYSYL
Procedure: as §1

TBK1 = target: T8, TBK1 (Homo sapiens, UniProt Q9UHD2); conditions: derived from % inhibition at 1 μM
T8 construct: purchased
T8 sequence (Q9UHD2 1-729): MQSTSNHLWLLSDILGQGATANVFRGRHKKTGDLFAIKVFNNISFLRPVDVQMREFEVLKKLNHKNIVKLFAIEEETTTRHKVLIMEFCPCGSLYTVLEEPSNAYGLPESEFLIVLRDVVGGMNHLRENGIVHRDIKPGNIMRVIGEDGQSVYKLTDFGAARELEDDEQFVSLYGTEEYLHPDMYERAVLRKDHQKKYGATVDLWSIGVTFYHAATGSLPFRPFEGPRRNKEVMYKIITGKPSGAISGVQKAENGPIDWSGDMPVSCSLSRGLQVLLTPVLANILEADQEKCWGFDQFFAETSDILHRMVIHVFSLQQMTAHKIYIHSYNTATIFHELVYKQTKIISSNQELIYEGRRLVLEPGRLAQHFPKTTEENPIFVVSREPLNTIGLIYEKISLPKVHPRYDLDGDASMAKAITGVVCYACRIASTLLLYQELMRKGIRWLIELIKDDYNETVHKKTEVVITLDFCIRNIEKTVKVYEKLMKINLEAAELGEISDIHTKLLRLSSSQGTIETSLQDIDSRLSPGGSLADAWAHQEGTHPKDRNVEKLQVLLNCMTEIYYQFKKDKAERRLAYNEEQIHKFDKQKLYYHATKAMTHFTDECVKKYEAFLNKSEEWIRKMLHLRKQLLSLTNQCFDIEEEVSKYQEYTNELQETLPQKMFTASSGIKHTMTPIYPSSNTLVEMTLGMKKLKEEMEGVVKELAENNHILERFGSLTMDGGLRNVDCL
Procedure: as §1

T1 sequence (P35968 20-1356, species assumed): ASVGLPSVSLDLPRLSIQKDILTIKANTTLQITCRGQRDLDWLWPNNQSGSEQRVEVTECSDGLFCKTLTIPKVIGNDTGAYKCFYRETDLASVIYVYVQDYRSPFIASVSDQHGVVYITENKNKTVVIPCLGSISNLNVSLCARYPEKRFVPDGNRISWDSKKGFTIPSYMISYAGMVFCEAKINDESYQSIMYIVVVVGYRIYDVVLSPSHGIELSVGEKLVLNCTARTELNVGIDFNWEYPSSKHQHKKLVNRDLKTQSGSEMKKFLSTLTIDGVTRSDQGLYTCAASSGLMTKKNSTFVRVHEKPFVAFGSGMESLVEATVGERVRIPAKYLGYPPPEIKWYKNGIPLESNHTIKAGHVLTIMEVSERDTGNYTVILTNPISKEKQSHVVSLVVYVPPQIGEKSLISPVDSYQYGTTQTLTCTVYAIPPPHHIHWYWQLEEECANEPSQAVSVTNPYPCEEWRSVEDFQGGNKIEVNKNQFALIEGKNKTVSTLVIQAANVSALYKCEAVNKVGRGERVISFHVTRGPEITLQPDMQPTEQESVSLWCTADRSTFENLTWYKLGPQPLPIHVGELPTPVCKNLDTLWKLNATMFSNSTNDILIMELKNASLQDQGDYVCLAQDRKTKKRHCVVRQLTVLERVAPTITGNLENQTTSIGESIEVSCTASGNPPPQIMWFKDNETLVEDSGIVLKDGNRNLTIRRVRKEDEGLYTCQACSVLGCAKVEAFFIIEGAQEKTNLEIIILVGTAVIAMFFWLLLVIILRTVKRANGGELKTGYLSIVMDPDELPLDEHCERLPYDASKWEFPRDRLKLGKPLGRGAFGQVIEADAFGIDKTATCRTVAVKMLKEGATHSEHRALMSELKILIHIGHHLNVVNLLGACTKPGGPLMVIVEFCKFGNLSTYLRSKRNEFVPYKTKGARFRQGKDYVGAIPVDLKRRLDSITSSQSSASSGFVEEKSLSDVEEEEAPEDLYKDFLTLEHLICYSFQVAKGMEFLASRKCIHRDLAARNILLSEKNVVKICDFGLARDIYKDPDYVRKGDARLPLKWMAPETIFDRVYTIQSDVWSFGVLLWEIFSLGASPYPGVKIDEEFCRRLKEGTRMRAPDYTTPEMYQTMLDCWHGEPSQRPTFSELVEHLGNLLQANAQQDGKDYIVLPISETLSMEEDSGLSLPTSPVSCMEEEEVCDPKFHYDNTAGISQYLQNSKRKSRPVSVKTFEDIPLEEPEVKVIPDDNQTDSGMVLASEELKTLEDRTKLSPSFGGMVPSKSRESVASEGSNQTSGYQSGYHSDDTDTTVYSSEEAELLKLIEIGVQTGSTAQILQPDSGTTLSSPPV

SMILES	IC50 (KDR (VEGFR)) [nM]	IC50 (PDPK1 (PDK1)) [nM]	IC50 (TTK) [nM]	IC50 (MARK3) [nM]	IC50 (CSNK2A1 (CK2)) [nM]	IC50 (CDK2) [nM]	IC50 (HIPK1) [nM]	remaining activity at 1 µM (HIPK1) [%]	IC50 (TBK1) [nM]	remaining activity at 1 µM (CSNK2A1 (CK2); read-out: residual kinase activity CK2) [%]	remaining activity at 1 µM (CDK2) [%]	remaining activity at 1 µM (KDR (VEGFR); read-out: residual kinase activity VEGFR) [%]	remaining activity at 1 µM (PDPK1 (PDK1); read-out: residual kinase activity PDK1) [%]	remaining activity at 1 µM (MARK3; read-out: residual kinase activity MARK3) [%]
CC(C)(C)OC(=O)Nc1nc(-c2ccncc2)sc1C#CCN1CCOCC1 [Compound A25, tert-butyl[5-(3-morpholin-4-ylprop-1-ynyl)-2-pyridin-4-ylthiazol-4-yl]-carbamate]	> 1000	> 1000	10000 to 100000	> 1000	> 1000	10000 to 100000	10 to 1000	48	10000 to 100000					
c1ccc(Cc2c[nH]c3ncsc23)cc1 [Compound A7, 6-benzyl-4H-pyrrolo[2,3-d]thiazole]	1000 to 10000	> 1000	10000 to 100000	1000 to 10000		10 to 1000	> 1000		> 1000	53	41			
Nc1ncsc1C#Cc1cnc2[nH]ccc2c1 [Compound A22, 5-(1H-pyrrolo[2,3-b]pyridin-5-ylethynyl)thiazol-4-ylamine]	10 to 1000	1000 to 10000	10000 to 100000	10 to 1000	> 1000	1000 to 10000	10 to 1000	36	> 1000		52	11	53	15
Nc1ncsc1C#Cc1cccc(O)c1 [Compound A27, 3-(4-aminothiazol-5-ylethynyl)phenol]	1000 to 10000	> 1000	10000 to 100000	10000 to 100000	> 1000	10000 to 100000	1000 to 10000		> 1000					
CC(C)(C)OC(=O)Nc1ncsc1C#CCN1C(=O)c2ccccc2C1=O [Compound A26, tert-butyl{5-[3-(1,3-dioxo-1,3-dihydroisoindol-2-yl)prop-1-ynyl]-thiazol-4-yl}carbamate]	> 1000	1000 to 10000	10000 to 100000	1000 to 10000	10000 to 100000	10 to 1000	> 1000		> 1000		28			
